Source: US10851097B2, “4,5,6,7-tetrahydro-1H-imidazo[4,5-c]pyridine and 1,4,5,6,7,8-hexahydroimidazo[4,5-d]azepine derivatives as janus kinase inhibitors” (Topivert Pharma Limited, priority 2015, dated 2020)

Legend:
[1] = system: CD3/IL2 stimulated PBMC cells; test: IFNγ release from CD3/IL2 stimulated PBMC cells (assay (a)); assay type: cell-based; conditions: Homo sapiens, CD3/IL2 stimulation, 48 h, ELISA
Experimental: (a) IFNγ Release from CD3/IL2 Stimulated PBMC Cells
PBMCs from healthy subjects are separated from whole blood using a density gradient (Lymphoprep, Axis-Shield Healthcare). Cells are added to a 96 well plate, and compound at the desired concentration added 2 hours prior to stimulation with a mixture of monoclonal antibody to CD3 (1 μg/ml, eBioscience) and human recombinant IL2 (10 ng/ml, Peprotech). After 48 hours incubation under normal tissue culture conditions, supernatants are collected and IFNγ release determined by Sandwich ELISA (Duo-set, R&D System). The IC50 is determined from the dose response curve.

Jurkat cells = test: Cell cytotoxicity assay in Jurkat cells (assay (c)); assay type: cell-based, human; conditions: 24 h, propidium iodide, normalised to DMSO control
Experimental: (c) Cell Cytotoxicity Assay
1×10^5 Jurkat cells (immortalised human T lymphocytes) are added to the appropriate number of wells of a 96 well plate in 100 μL of media (RPMI supplemented with 10% foetal bovine serum). 1 μL of DMSO control (final concentration 1.0% v/v) or test compound (final concentration 20, 5 or 1 μg/mL) is added to the wells and incubated at 37° C., 5% CO2. After 24 hours, the plate is centrifuged at 1200 rpm for 3 minutes and the supernatant discarded. Cells are then resuspended in 150 μL (final concentration 7.5 μg/mL) of propidium iodide (PI) in PBS and incubated at 37° C., 5% CO2 for 15 minutes. After 15 minutes, cells are analysed by flow cytometry (BD accuri) using the FL3 window. The % viability is calculated as the % of cells that are PI negative in the test wells normalised to the DMSO control.

Row | Compound | IC50 [1] [nM] | % viability at 1 μg/mL (Jurkat cells) [%]
1 | CCc1cc(O)c(F)cc1-c1ccc2c(-c3nc4c([nH]3)CCN(C(=O)c3cnc(N5C[C@H](O)[C@@H](O)[C@H](O)[C@H]5CO)cn3)C4)n[nH]c2c1 (stereo in doubt) [Example 2(s), (2-(6-(2-ethyl-5-fluoro-4-hydroxyphenyl)-1H-indazol-3-yl)-6,7-dihydro-1H-imidazo[4,5-c]pyridin-5(4H)-yl)(5-((2R,3R,4R,5S)-3,4,5-trihydroxy-2-(hydroxymethyl)piperidin-1-yl)pyrazin-2-yl)methanone] | 694 | –
2 | CCc1cc(O)c(F)cc1-c1ccc2c(-c3nc4c([nH]3)CCN(C(=O)c3cnc(N(C)CCCC(=O)O)cn3)C4)n[nH]c2c1 [Example 2(a), 4-((5-(2-(6-(2-ethyl-5-fluoro-4-hydroxyphenyl)-1H-indazol-3-yl)-4,5,6,7-tetrahydro-1H-imidazo[4,5-c]pyridine-5-carbonyl)pyrazin-2-yl)(methyl)amino)butanoic acid] | 732 | –
3 | CCc1cc(O)c(F)cc1-c1ccc2c(-c3nc4c([nH]3)CCN(C(=O)c3cnc(NCCN5CCC(O)CC5)cn3)C4)n[nH]c2c1 [Example 2(b), (2-(6-(2-ethyl-5-fluoro-4-hydroxyphenyl)-1H-indazol-3-yl)-1,4,6,7-tetrahydro-5H-imidazo[4,5-c]pyridin-5-yl)(5-((2-(4-hydroxypiperidin-1-yl)ethyl)amino)pyrazin-2-yl)methanone] | 87 | –
4 | CCc1cc(O)c(F)cc1-c1ccc2c(-c3nc4c([nH]3)CCN(C(=O)c3cnc(N(C)Cc5ccccn5)cn3)C4)n[nH]c2c1 [Example 2(c), (2-(6-(2-ethyl-5-fluoro-4-hydroxyphenyl)-1H-indazol-3-yl)-1,4,6,7-tetrahydro-5H-imidazo[4,5-c]pyridin-5-yl)(5-(methyl(pyridin-2-ylmethyl)amino)pyrazin-2-yl)methanone] | 37 | –
5 | CCc1cc(O)c(F)cc1-c1ccc2c(-c3nc4c([nH]3)CCN(C(=O)c3cnc(NCCN5CC[S+]([O-])CC5)cn3)C4)n[nH]c2c1 [Example 2(d), (2-(6-(2-ethyl-5-fluoro-4-hydroxyphenyl)-1H-indazol-3-yl)-1,4,6,7-tetrahydro-5H-imidazo[4,5-c]pyridin-5-yl)(5-((2-(1-oxidothiomorpholino)ethyl)amino)pyrazin-2-yl)methanone] | 270 | –
6 | CCc1cc(O)c(F)cc1-c1ccc2c(-c3nc4c([nH]3)CCN(C(=O)c3cnc(N5CC[S+]([O-])CC5)cn3)C4)n[nH]c2c1 [Example 2(e), (2-(6-(2-ethyl-5-fluoro-4-hydroxyphenyl)-1H-indazol-3-yl)-1,4,6,7-tetrahydro-5H-imidazo[4,5-c]pyridin-5-yl)(5-(1-oxildothiomorpholino)pyrazin-2-yl)methanone] | 57.6 | 96
7 | CCc1cc(O)c(F)cc1-c1ccc2c(-c3nc4c([nH]3)CCN(C(=O)c3cnc(N5CCN(CCN(C)C)CC5)cn3)C4)n[nH]c2c1 [Example 2(f), (5-(4-(2-(dimethylamino)ethyl)piperazin-1-yl)pyrazin-2-yl)(2-(6-(2-ethyl-5-fluoro-4-hydroxyphenyl)-1H-indazol-3-yl)-1,4,6,7-tetrahydro-5H-imidazo[4,5-c]pyridin-5-yl)methanone] | 49.3 | 16
8 | CCc1cc(O)c(F)cc1-c1ccc2c(-c3nc4c([nH]3)CCN(C(=O)c3cnc(NCCC5(O)CCN(C)CC5)cn3)C4)n[nH]c2c1 [Example 2(g), (2-(6-(2-ethyl-5-fluoro-4-hydroxyphenyl)-1H-indazol-3-yl)-1,4,6,7-tetrahydro-5H-imidazo[4,5-c]pyridin-5-yl)(5-((2-(4-hydroxy-1-methylpiperidin-4-yl)ethyl)amino)pyrazin-2-yl)methanone] | 271 | –
9 | CCc1cc(O)c(F)cc1-c1ccc2c(-c3nc4c([nH]3)CCN(C(=O)c3cnc(N(CCOC)CCOC)cn3)C4)n[nH]c2c1 [Example 2(i), (5-(bis(2-methoxyethyl)amino)pyrazin-2-yl)(2-(6-(2-ethyl-5-fluoro-4-hydroxyphenyl)-1H-indazol-3-yl)-1,4,6,7-tetrahydro-5H-imidazo[4,5-c]pyridin-5-yl)methanone] | 14.5 | 53
10 | CCc1cc(O)c(F)cc1-c1ccc2c(-c3nc4c([nH]3)CCN(C(=O)c3cnc(N5CCN(CCn6ccnc6)CC5)cn3)C4)n[nH]c2c1 [Example 2(j), (5-(4-(2-(1H-imidazol-1-yl)ethyl)piperazin-1-yl)pyrazin-2-yl)(2-(6-(2-ethyl-5-fluoro-4-hydroxyphenyl)-1H-indazol-3-yl)-1,4,6,7-tetrahydro-5H-imidazo[4,5-c]pyridin-5-yl)methanone] | 5.3 | 12
11 | CCc1cc(O)c(F)cc1-c1ccc2c(-c3nc4c([nH]3)CCN(C(=O)c3cnc(N5CCN(CCO)CC5)cn3)C4)n[nH]c2c1 [Example 2(l), (2-(6-(2-ethyl-5-fluoro-4-hydroxyphenyl)-1H-indazol-3-yl)-6,7-dihydro-1H-imidazo[4,5-c]pyridin-5(4H)-yl)(5-(4-(2-hydroxyethyl)piperazin-1-yl)pyrazin-2-yl)methanone] | 9.4 | 10
12 | CCc1cc(O)c(F)cc1-c1ccc2c(-c3nc4c([nH]3)CCN(C(=O)c3cnc(NCCOCCOCCOC)cn3)C4)n[nH]c2c1 [Example 2(m), (2-(6-(2-ethyl-5-fluoro-4-hydroxyphenyl)-1H-indazol-3-yl)-6,7-dihydro-1H-imidazo[4,5-c]pyridin-5(4H)-yl)(5-((2-(2-(2-methoxyethoxy)ethoxy)ethyl)amino)pyrazin-2-yl)methanone] | 15.2 | 88
13 | CCc1cc(O)c(F)cc1-c1ccc2c(-c3nc4c([nH]3)CCN(C(=O)c3cnc(N(C)CCN(C)C(C)=O)cn3)C4)n[nH]c2c1 [Example 2(n), N-(2-((5-(2-(6-(2-ethyl-5-fluoro-4-hydroxyphenyl)-1H-indazol-3-yl)-4,5,6,7-tetrahydro-1H-imidazo[4,5-c]pyridine-5-carbonyl)pyrazin-2-yl)(methy)amino)ethyl)-N-methylacetamide] | 29.2 | 87
14 | CCc1cc(O)c(F)cc1-c1ccc2c(-c3nc4c([nH]3)CCN(C(=O)c3cnc(N5CC(CO)C5)cn3)C4)n[nH]c2c1 [Example 2(o), (2-(6-(2-ethyl-5-fluoro-4-hydroxyphenyl)-1H-indazol-3-yl)-6,7-dihydro-1H-imidazo[4,5-c]pyridin-5(4H)-yl)(5-(3-(hydroxymethyl)azetidin-1-yl)pyrazin-2-yl)methanone] | 22.5 | 62
15 | CCc1cc(O)c(F)cc1-c1ccc2c(-c3nc4c([nH]3)CCN(C(=O)c3cnc(N(CCO)CCO)cn3)C4)n[nH]c2c1 [Example 2(p), (5-(bis(2-hydroxyethyl)amino)pyrazin-2-yl)(2-(6-(2-ethyl-5-fluoro-4-hydroxyphenyl)-1H-indazol-3-yl)-6,7-dihydro-1H-imidazo[4,5-c]pyridin-5(4H)-yl)methanone] | 154 | –
16 | CCc1cc(O)c(F)cc1-c1ccc2c(-c3nc4c([nH]3)CCN(C(=O)c3cnc(NCCS(C)(=O)=O)cn3)C4)n[nH]c2c1 [Example 2(q), (2-(6-(2-ethyl-5-fluoro-4-hydroxyphenyl)-1H-indazol-3-yl)-6,7-dihydro-1H-imidazo[4,5-c]pyridin-5(4H)-yl)(5-((2-(methylsulfonyl)ethyl)amino)pyrazin-2-yl)methanone] | 113 | 94
17 | CCc1cc(O)c(F)cc1-c1ccc2c(-c3nc4c([nH]3)CCN(C(=O)c3cnc(NCCN5CCCC5=O)cn3)C4)n[nH]c2c1 [Example 2(r), 1-(2-((5-(2-(6-(2-ethyl-5-fluoro-4-hydroxyphenyl)-1H-indazol-3-yl)-4,5,6,7-tetrahydro-1H-imidazo[4,5-c]pyridine-5-carbonyl)pyrazin-2-yl)amino)ethyl)pyrrolidin-2-one] | 90.8 | –
18 | CCc1cc(O)c(F)cc1-c1ccc2c(-c3nc4c([nH]3)CCN(C(=O)c3cnc(N5C[C@H]6CN(C)C[C@H]6C5)cn3)C4)n[nH]c2c1 [Example 2(t), (2-(6-(2-ethyl-5-fluoro-4-hydroxyphenyl)-1H-indazol-3-yl)-6,7-dihydro-1H-imidazo[4,5-c]pyridin-5(4H)-yl)(5-((3aR,6aS)-5-methylhexahydropyrrolo[3,4-c]pyrrol-2(1H)-yl)pyrazin-2-yl)methanone] | 15.2 | 18
19 | CCc1cc(O)c(F)cc1-c1ccc2c(-c3nc4c([nH]3)CCN(C(=O)c3cnc(N(C)CCN5CCOC5=O)cn3)C4)n[nH]c2c1 [Example 2(u), 3-(2-((5-(2-(6-(2-ethyl-5-fluoro-4-hydroxyphenyl)-1H-indazol-3-yl)-4,5,6,7-tetrahydro-1H-imidazo[4,5-c]pyridine-5-carbonyl)pyrazin-2-yl)(methyl)amino)ethyl)oxazolidin-2-one] | 73.8 | –
20 | CCc1cc(O)c(F)cc1-c1ccc2c(-c3nc4c([nH]3)CCN(C(=O)c3cnc(N5C[C@@H]6C(=O)NC(=O)[C@@H]6C5)cn3)C4)n[nH]c2c1 [Example 2(w), (3aR,6aS)-5-(5-(2-(6-(2-ethyl-5-fluoro-4-hydroxyphenyl)-1H-indazol-3-yl)-4,5,6,7-tetrahydro-1H-imidazo[4,5-c]pyridine-5-carbonyl)pyrazin-2-yl)tetrahydropyrrolo[3,4-c]pyrrole-1,3(2H,3aH)-dione] | 942 | –
